The nature of series [1]: Dose finding / toxicity in pregnant C57B1/6 mice. Type of series: in vivo. Here is the method:
Triptolide has been previously studied in rodent models of tumor regression (Tengchaisri, et al., 1998, Cancer Lett 133, 169-175; Yang, et al., 2003, Mol Cancer Ther 2, 65-72), but it had not yet been tested in a system utilizing pregnant females. To first establish a potential therapeutic versus lethal concentration of drug delivery, pregnant C57B1/6 mice were treated with incremental concentrations of triptolide between 0.01-0.15 mg/kg/day i.p. injections. Toxicity was assessed as determined by resorption of all embryos or the preponderance of a large percentage of stillborns. With reference to these criteria, triptolide toxicity was determined to be most prominent at concentrations of 0.1 mg/kg/day or greater. […] Another experimental parameter involved the timing of the start of triptolide injections, since polycystin-2 has been implicated in left-right axis formation in the developing embryo at approximately E7.75 (McGrath, et al., 2003, Cell 114, 61-73; Pennekamp, et al., 2002, Curr Biol 12, 938-943). Applicants therefore chose E10.5 as the start of triptolide injections, in order to allow for a normal polycystin-2 mediated patterning event and still leave sufficient time to act on cyst formation during kidney organogenesis.

For series [2], the system named is Pkd1^−/− murine model of polycystic kidney disease. Type of series: in vivo, mice. Conditions: for Alive Pkd1^−/− (birth): 0.07 mg/kg/day i.p. to pregnant mice; for Alive Pkd1^−/− (birth) / Ave. kidney wet weight Pkd1^−/−: E10.5 until birth; for Ave. kidney wet weight Pkd1^−/−: 0.07 mg/kg/day i.p. The protocol: As per approved IACUC animal protocol, Pkd1^+/−/Pkd1^+/− mice were mated and pregnant mice were divided into control (DMSO) or experimental (triptolide) groups. A total volume of 100 μl of PBS with no more than 5% DMSO or DMSO/0.07 mg/kg/day triptolide was injected i.p. with a 28 G ½ insulin syringe. Mice were weighed and injected starting at E10.5 until birth. All pups were examined for length and developmental staging such as whisker formation. Kidneys were harvested, weighed, and fixed in 4% paraformaldehyde before histological preparation.
Kidneys were prepared by sagittal cross-sectioning and hematoxylin and eosin staining. All kidneys were photographed under the same magnification (4×) and cystic burden was computed using Image J analysis software (NIH). The area of cysts within the total area of the kidney (pixels) was calculated as a final percentage of cystic burden in the kidney. Immunohistochemical analysis of active caspase-3 was completed as per manufacturer's protocol.
Following successful Pkd1^+/− Pkd1^+/− matings, 0.07 mg/kg/day of triptolide or DMSO control was injected i.p. into pregnant mice until they gave birth. All pups were assessed for viability, length, developmental staging, and wet kidney weight. A total of 59 pups from DMSO treated females and 100 pups from triptolide treated females were examined for multiple parameters, such as genotypic distribution, developmental stage at time of birth, and average kidney weights (Table 1). […] Approximately 20% of all Pkd1^−/− mice were born alive from each treatment group. However, severe edematous abnormalities were obvious upon necropsy.

Series [3] has as its system HeLa cells. Description: [3H]-triptolide labeling followed by cellular fractionation. The series is classed as binding. An excerpt:
To address first the nature of triptolide binding within the cell, Applicant determined this interaction was reversible as [^3H]-triptolide labeling was out competed by subsequent addition of excess unlabeled triptolide (FIG. 4A). […] Although 25% of the total cellular counts (i.e., representing bound triptolide) were found in the cytosolic fraction, it is uncertain whether this is specific binding or simply that free triptolide had dissociated from its binding protein due to experimental manipulation during fractionation. Since the data thus far had only shown binding within whole cells, Applicant next determined if this triptolide binding protein could be further characterized and/or enriched by its association with chromatographic reagents. HeLa cells were once again labeled with [^3H]-triptolide and total cell lysates were then passed over the anion exchange resin DEAE. […] Importantly, Applicant also observed that [^3H]-triptolide would only bind to intact cells in culture but would not bind to any component of a total cellular lysate as assessed by interaction with the DEAE resin. […]
For cellular fractionation studies, cells were allowed to swell on ice and lysed by passage through a syringe in a hypotonic lysis buffer (10 mM Tris-HCl+complete protease inhibitors). […] Gel slices were measured out in equal increments and the molecular weight range of each was calculated. […]

The test system of series [4] is HeLa cells. Description: [3H]-triptolide competition binding in intact HeLa cells. Here is the method:
To gain insight into triptolide's mechanism of action Applicant sought to determine its specific binding activity utilizing a system employing [^3H]-triptolide. In addition to competition with 1 μM or 10 μM unlabeled triptolide, Applicant also measured the binding affinities of triptolide analogs (FIG. 3A). These analogs have been previously described and differ structurally from triptolide in the hydrolysis of the 12,13 epoxide (2), and formation of the ketone at the C-14 hydroxyl (3) (FIG. 3A). […] The effective interaction of these analogs with a presumed triptolide binding entity led us to their use in subsequent experiments addressing the mode of triptolide's biological functions.
Labeling studies were performed by the addition of approximately 30 nM [^3H]-triptolide directly into the culture media for one hour at 37° C. For cold competition studies, 1 μM triptolide was incubated with the cells for one hour before or after the addition of [^3H]-triptolide. Triptolide analog studies followed a similar protocol where concentrations used for competition were either 1 or 10 μM added before [^3H]-triptolide. Medium was removed and cells were washed 3× in cold PBS. Total cell lysates were prepared (150 mM NaCl, 50 mM Tris-HCl pH 7.4, 1 mM EDTA, 1% Triton X-100, and Complete™ protease inhibitors (Roche)) and protein was quantitated before measuring the [^3H]-triptolide binding activity via liquid scintillation.

Where [5] appears, read: Pkd1^−/− pups, 0.07 mg/kg/day i.p. during gestation.

Like-named read-outs stand apart in the source and are kept apart here. Some results are limits rather than exact numbers.

As to `CC(C)[C@]12O[C@H]1[C@@H]1O[C@]13[C@]1(O[C@H]1C[C@H]1C4=C(CC[C@@]13C)C(=O)OC4)[C@@H]2O` [triptolide], the adverse effects entry in series [1] (0.07 mg/kg/day i.p.) was “no discernable adverse effects”. Moreover, the MTD in series [1] (female, mouse, in vivo, ip, read-out: maximum tolerated dose) was found to be 0.07 mg/kg/day. Besides, the “dose at which toxicity (resorption of all embryos or large percentage of stillborns) was most prominent” value in series [1] (i.p., 0.01-0.15 mg/kg/day tested) is given as no less than 0.1 mg/kg/day. For the same compound, the “Alive Pkd1^−/− (birth)” value is “Approximately 20%” in series [2] and 4 (22%) in series [2] (listed as Triptolide). Moreover, the “Ave. kidney wet weight Pkd1^−/−” value was found to be 24.6 ± 0.8 mg in series [2] (mean ± SE) and 21.8 ± 2.8 mg in series [2] (mean ± SE, listed as Triptolide). Besides, the “active caspase-3 immunoreactivity in kidney sections” value in series [2] (Pkd1^−/− kidneys, 0.07 mg/kg/day i.p. during gestation) is on record as “did not show any significant activation of the caspase pathway”. Further, the “diameter of cyst lumens on average” value in series [2] (setting [5]) is recorded as “smaller”. This compound also showed a maximum cyst burden in series [2] (setting [5]) of 25%. Further, the “cystic burden (cyst area as percentage of total kidney area), average” value in series [2] (Pkd1^−/− pups, 0.07 mg/kg/day i.p. during gestation, mean ± SE) is recorded as 15±2.1%. For the same compound, the “wet kidney weight or overall size of Pkd1^+/+ or Pkd1^+/− mice versus DMSO” value in series [2] (mouse, in vivo) is “no significant difference”. In series [3] (S-100, P-100, insoluble fractions), the “cellular fraction that binds [3H]-triptolide” value is given as “predominantly to the membrane fraction (P-100)”. Also, the “total cellular counts (bound triptolide) found in the cytosolic fraction” value in series [3] (S-100 fraction) was determined as 25%. The “nature of triptolide binding (out-competed by subsequent excess unlabeled triptolide)” value in series [4] (1 μM cold triptolide after [3H]-triptolide) is reported as “reversible”. Besides, the “displacement of / competition for [3H]-triptolide binding” value in series [4] (1 or 10 μM unlabeled competitor for 1 h before approx. 30 nM [3H]-triptolide for 1 h) is recorded as “significantly competed”.

The values above are taken from patent publication US20080063601A1, “Compositions and methods relating to polycystic kidney disease” (priority 2004, published 2008).
